The results in this text go back to US20190062277A1, “FARNESOID X RECEPTOR AGONISTS AND USES THEREOF” (Metacrine, Inc., priority 2015, published 2019).

Experiment [1] has as its target T1, FXR (Homo sapiens, UniProt Q96RI1).
T1 sequence (Q96RI1 1-486): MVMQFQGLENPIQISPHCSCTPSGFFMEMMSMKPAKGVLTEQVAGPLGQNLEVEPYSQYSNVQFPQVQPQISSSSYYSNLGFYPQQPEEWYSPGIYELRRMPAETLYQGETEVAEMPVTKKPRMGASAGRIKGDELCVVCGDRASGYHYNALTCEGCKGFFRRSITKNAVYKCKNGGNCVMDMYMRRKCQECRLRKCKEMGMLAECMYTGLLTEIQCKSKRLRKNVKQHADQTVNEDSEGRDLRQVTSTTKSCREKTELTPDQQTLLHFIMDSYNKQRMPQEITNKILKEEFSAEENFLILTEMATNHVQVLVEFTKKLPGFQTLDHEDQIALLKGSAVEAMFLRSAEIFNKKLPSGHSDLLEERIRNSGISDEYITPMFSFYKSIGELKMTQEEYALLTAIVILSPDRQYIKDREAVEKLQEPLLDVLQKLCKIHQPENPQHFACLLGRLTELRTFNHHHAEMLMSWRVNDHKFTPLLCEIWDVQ
T1 sequence (P19793 1-462 partner): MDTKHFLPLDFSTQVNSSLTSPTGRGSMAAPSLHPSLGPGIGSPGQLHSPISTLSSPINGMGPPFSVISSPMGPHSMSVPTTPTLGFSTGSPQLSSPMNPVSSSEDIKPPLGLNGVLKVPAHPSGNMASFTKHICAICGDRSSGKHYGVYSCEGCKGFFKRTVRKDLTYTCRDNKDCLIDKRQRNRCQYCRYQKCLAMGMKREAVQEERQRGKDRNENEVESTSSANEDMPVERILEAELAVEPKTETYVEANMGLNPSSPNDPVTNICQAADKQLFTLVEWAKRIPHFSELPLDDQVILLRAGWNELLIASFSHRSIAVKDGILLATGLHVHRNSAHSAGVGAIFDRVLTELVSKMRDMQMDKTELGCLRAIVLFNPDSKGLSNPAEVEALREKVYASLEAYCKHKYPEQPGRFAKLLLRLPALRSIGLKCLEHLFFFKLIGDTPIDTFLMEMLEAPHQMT
The experiment is described as follows: In Vitro FXR Assay (TK), luciferase reporter in transfected CV-1 cells. As to conditions: CV-1 cells transfected with hFXR, hRXR, TK-ECRE-luc; 18 hrs incubation; luminescence; maximum efficacy <25% of Fexaramine control also classified '+'. Also noted: expressed in transfected cells; host or cells: CV-1 cells. It counts as cell-based. The method, then: Example B-2: In Vitro FXR Assay (TK)
CV-1 cells were seeded at a density of 2,000,000 cells in a T175 flask with DMEM+10% charcoal double-stripped FBS and incubated at 37° C. in 5% CO2 for 18 h (0/N).
After 18 h of incubation, the medium in the T175 flask was changed with fresh DMEM+10% charcoal super-stripped serum. In a polypropylene tube, 2500 μL OptiMEM (Life Technologies, Cat #31985-062) was combined with expression plasmids for hFXR, hRXR, TK-ECRE-luc and pCMX-YFP. The tube was then briefly vortexed and incubated at room temperature for 5 minutes. Transfection reagent (X-tremeGENE HP from Roche, Cat #06 366 236 001) was added to the OptiMEM/plasmid mixture vortexed and incubated at room temperature for 20 minutes. Following incubation, the transfection reagent/DNA mixture complex was added to cells in the T175 flask and the cells were incubated at 37° C. in 5% CO2 for 18 h (O/N).
Compounds were serially diluted in DMSO and added to transfected CV-1 cells. The cells were then incubated for 18 hrs. The next day cells were lysed and examined for luminescence.

For experiment [2], the target named is T1, FXR. Briefly: In Vitro FXR Assay (PGL3), luciferase reporter in transfected CV-1 cells. The format is cell-based. Also noted: plasmids XPD90Gal pCMXhFXRfl, pCMXhRXRfl+PGL3-ECRE*6-luc+CMX-YFP; expressed in transfected cells; host or cells: CV-1 cells. Conditions: CV-1 cells transfected with hFXR, hRXR, PGL3-ECRE*6-luc; 18 hrs incubation; luminescence. The procedure:
Example B-1: In Vitro FXR Assay (PGL3)
CV-1 cells were seeded at a density of 2,000,000 cells in a T175 flask with DMEM+10% charcoal double-stripped FBS and incubated at 37° C. in a 5% CO2 for 18 h (0/N).
After 18 h of incubation, the medium in the T175 flask was changed with fresh DMEM+10% charcoal super-stripped serum.
To prepare the transfection reaction mixture, the transfection reagent (X-tremeGENE HP from Roche, Cat #06 366 236 001) was added in to a 1.5 mL microcentrifuge tube labelled “A” at a ratio of 1:3 (DNA in μg: transfection reagent in μL). OptiMEM medium (Life Technologies, Cat #31985-062) was added accordingly to provide a total volume of 1 mL. The transfection reaction mixture was then briefly vortexed and incubated at room temperature for 5 minutes.
In a separate 1.5 mL microcentrifuge tube labelled “B”, 100 μL OptiMEM and plasmids XPD90Gal pCMXhFXRfl, pCMXhRXRfl+PGL3-ECRE*6-luc+CMX-YFP in the ratio 2 μg: 2 μg:18 μg:3 μg were added. This microcentrifuge tube “B” was then briefly vortexed and incubated at room temperature for 5 minutes.
The total volume in tube labelled “A” was then transferred in to tube labelled “B.” The mixture was then briefly vortexed and the transfection:DNA complex was then incubated for about 15-20 minutes at room temperature.
Following incubation, the transfection reagent/DNA mixture complex was then added to cells in the T175 flask and the cells were incubated at […] (0/N) at 37° C. in 5% CO2.
In a 96 well plate, a half logarithmic serial dilution was prepared. OptiMEM was used as the diluent. Using any of one of the compounds described herein, a compound stock solution of 10 mM was prepared. An initial 1:100 dilution was made into the first well for a final concentration of 100 μM. The final concentrations in the 96-well plate was prepared by using a multichannel pipette to transfer 5 μL of the diluted compound to 384-well plate in quadruplicate.
Cells in T175 flask were trypsinized and cells were resuspending in 40 mL phenol red free DMEM+10% charcoal super-stripped FBS. Typically, one T175 flask was sufficient to seed two 384 well plates. CV-1 cells were seeded at 45 μL cell suspension/well using a multi-channel pipet or a 384 multidrop dispenser. The cells were then incubated for 18 hrs, overnight.
After removing the plates from the incubator, the medium was flicked out of plate and 384 well plate was turned upside down onto paper towel. The remaining medium was gently tapped out. 15 μL lysis buffer was then added to each well using a multichannel pipet or a 384 well multi-drop dispenser. After incubation for 10 minutes at room temperature on shaker, 30 μL Luciferase buffer was added to each well. Luminescence counts were taken immediately using the Perkin Elmer Envision.
The ability of the compounds disclosed herein to […] FXR activity was quantified and the respective EC50 value was determined. Fex=fexaramine.

Consider `COC(=O)/C=C/c1cccc(N(C[C@H]2CC[C@H](c3ccc(OC)c(C)c3)CC2)C(=O)[C@H]2CC[C@H](O)CC2)c1` [Compound 14, trans-(E)-Methyl 3-(3-(trans-4-hydroxy-N-((4-(4-methoxy-3-methylphenyl)cyclohexyl)methyl)cyclohexanecarboxamido)phenyl)acrylate], for which the EC50 on FXR [1] was no more than 1000 nM.
Take `COC(=O)/C=C/c1cccc(N(C[C@@H]2CCN(c3ccc(N(C)C)cc3)C2)C(=O)C2CCCCC2)c1` [Compound 3, (R,E)-Methyl 3-(3-(N-((1-(4-(dimethylamino)phenyl)pyrrolidin-3-yl)methyl)cyclohexanecarboxamido)phenyl) acrylate]: on FXR [1], the EC50 is no less than 10000 nM. Also, the “Cmpd/Fex (ratio of the EC50 for the test compound relative to the EC50 of the Fexaramine control)” value on FXR [2] is recorded as “+ (‘+’ means Cmpd/Fex >100)”.
`COC(=O)/C=C/c1cccc(N(C[C@H]2CCN(c3ccc(N(C)C)cc3)C2)C(=O)C2CCCCC2)c1` [Compound 4, (S,E)-Methyl 3-(3-(N-((1-(4-(dimethylamino)phenyl)pyrrolidin-3-yl)methyl)cyclohexanecarboxamido)phenyl) acrylate] returned an EC50 at FXR [1] of 1000 to 10000 nM. Besides, the “Cmpd/Fex (ratio of the EC50 for the test compound relative to the EC50 of the Fexaramine control)” value on FXR [2] is on record as “++ (‘++’ means Cmpd/Fex >10 & <100)”.
In the case of `COc1ccc([C@H]2CC[C@H](CN(c3cccc(/C=C/C(=O)OC(C)C)c3)C(=O)[C@H]3CC[C@H](O)CC3)CC2)cc1C` [Compound 13, trans-(E)-Isopropyl 3-(3-(trans-4-hydroxy-N-((4-(4-methoxy-3-methylphenyl)cyclohexyl)methyl)cyclohexanecarboxamido)phenyl)acrylate], the EC50 on FXR [1] is no more than 1000 nM.
Take `COC(=O)/C=C/c1cccc(N(CC2CCC(c3ccc(Cl)cc3)CC2)C(=O)C2CCCCC2)c1` (stereo not shown) [Compound 7, (E)-Methyl 3-(3-(N-((4-(4-chlorophenyl)cyclohexyl)methyl)cyclohexanecarboxamido)phenyl)acrylate]: on FXR [1], the EC50 was no more than 1000 nM. Also, at FXR [2], the “Cmpd/Fex (ratio of the EC50 for the test compound relative to the EC50 of the Fexaramine control)” value is recorded as “+++ (‘+++’ means Cmpd/Fex <10)”.
Turning to `COC(=O)/C=C/c1cccc(N(CC2CN(c3ccc(N(C)C)cc3)C2)C(=O)C2CCCCC2)c1` [Compound 4.1, (E)-Methyl 3-(3-(N-((1-(4-(dimethylamino)phenyl)azetidin-3-yl)methyl)cyclohexanecarboxamido)phenyl) acrylate], the EC50 at FXR [1] was no less than 10000 nM.
As for `COC(=O)/C=C/c1cccc(N(Cc2ccc(-c3ccc(N(C)C)cc3)nc2)C(=O)C2CCCCC2)c1` [Compound 1, (E)-Methyl 3-(3-(N-((6-(4-(dimethylamino)phenyl)pyridin-3-yl)methyl)cyclohexanecarboxamido)phenyl)acrylate], the EC50 at FXR [1] was in the range of 1000 to 10000 nM. For the same compound, the “Cmpd/Fex (ratio of the EC50 for the test compound relative to the EC50 of the Fexaramine control)” value at FXR [2] is on record as “+++ (‘+++’ means Cmpd/Fex <10)”.
Take `COC(=O)/C=C/c1cccc(N(C[C@H]2CC[C@H](c3ccc(OC)c(C)c3)CC2)C(=O)C2CCCCC2)c1` [Compound 8, trans-(E)-Methyl 3-(3-(N-((4-(4-methoxy-3-methylphenyl)cyclohexyl)methyl)cyclohexanecarboxamido)phenyl)acrylate]: the EC50 on FXR [1] is no more than 1000 nM.
Same read-out and setting: in the case of `COc1ccc([C@H]2CC[C@H](CN(C(=O)CC(C)(C)C)c3cccc(/C=C/C(=O)OC(C)C)c3)CC2)cc1C` [Compound 11, trans-(E)-Isopropyl 3-(3-(N-((4-(4-methoxy-3-methylphenyl)cyclohexyl)methyl)-3,3-dimethylbutanamido)phenyl)acrylate] it was no more than 1000 nM.
In the case of `COC(=O)/C=C/c1cccc(N(CC2CCN(c3ccc(C)cc3)CC2)C(=O)C2CCCCC2)c1` [Compound 5, (E)-Methyl 3-(3-(N-((1-(p-tolyl)piperidin-4-yl)methyl)cyclohexanecarboxamido)phenyl)acrylate], the EC50 on FXR [1] was no more than 1000 nM. The “Cmpd/Fex (ratio of the EC50 for the test compound relative to the EC50 of the Fexaramine control)” value on FXR [2] is “+++ (‘+++’ means Cmpd/Fex <10)”.
As for `COC(=O)/C=C/c1cccc(N(C[C@H]2CC[C@H](c3ccc(OC)c(C)c3)CC2)C(=O)CC(C)(C)C)c1` [Compound 9, trans-(E)-Methyl 3-(3-(N-((4-(4-methoxy-3-methylphenyl)cyclohexyl)methyl)-3,3-dimethylbutanamido)phenyl)acrylate], the EC50 at FXR [1] is no more than 1000 nM.
Still for that read-out and setting: in the case of `COc1ccc([C@H]2CC[C@H](CN(C(=O)C3CCCCC3)c3cccc(/C=C/C(=O)O)c3)CC2)cc1C` [Compound 6.1, trans-(E)-3-(3-(N-((4-(4-Methoxy-3-methylphenyl)cyclohexyl)methyl)cyclohexanecarboxamido)phenyl)acrylic acid] it was 1000 to 10000 nM.
On FXR [1], `COC(=O)/C=C/c1cccc(N(C[C@H]2CC[C@@H](c3ccc(OC)c(C)c3)CC2)C(=O)C2CCCCC2)c1` [Compound 12, cis-(E)-Methyl 3-(3-(N-((4-(4-methoxy-3-methylphenyl)cyclohexyl)methyl)cyclohexanecarboxamido)phenyl)acrylate] yielded an EC50 of no less than 10000 nM.
Still for that read-out and setting: with `COc1ccc([C@H]2CC[C@H](CN(C(=O)C3CCCCC3)c3cccc(/C=C/C(=O)OC(C)C)c3)CC2)cc1C` [Compound 10, trans-(E)-Isopropyl 3-(3-(N-((4-(4-methoxy-3-methylphenyl)cyclohexyl)methyl)cyclohexanecarboxamido)phenyl)acrylate] the figure was no more than 1000 nM.

As a reminder, the EC50 is the midpoint of the concentration-response curve. A higher EC50 goes with lower potency in that assay.
